The nature of this data set: Solubility in cyclopentanone. The settings on record: solvent cyclopentanone. The data set is classed as physicochemical. The method, then: For Compounds (1) to (8) thus synthesized, solubility in cyclopentanone was measured.

As for `CCCCCC(=O)OCCCCOC(=O)c1ccc(/N=N/c2cc3sc(/N=N/c4ccc(N(CC)CC)cc4)nc3s2)cc1` [Compound (5)], the Solubility in cyclopentanone is 1.2% by mass.

The compound `CCCCCCCCCC(=O)OCCc1ccc(/N=N/c2cc3sc(/N=N/c4ccc(N(CC)CC)cc4)nc3s2)cc1` [Compound (8), reference compound] returned a Solubility in cyclopentanone of 0.50% by mass.

In the case of `CCCCCCCCCCCCc1ccc(/N=N/c2cc3sc(/N=N/c4ccc(N(CC)CC)cc4)nc3s2)cc1` [Compound (6), reference compound], the Solubility in cyclopentanone came out at 0.59% by mass.

On to `CCN(CC)c1ccc(/N=N/c2nc3sc(/N=N/c4ccc(CCOC(=O)CCC(=O)OCCC(C)CCCC(C)C)cc4)cc3s2)cc1` (centres unmarked) [Compound (4)], for which the Solubility in cyclopentanone is listed as 5.4% by mass.

For `CCCCC(CC)C(=O)OCCc1ccc(/N=N/c2cc3sc(/N=N/c4ccc(N(CC)CC)cc4)nc3s2)cc1` (centres unmarked) [Compound (3)], the Solubility in cyclopentanone is given as 6.0% by mass.

Consider `CCN(CC)c1ccc(/N=N/c2nc3sc(/N=N/c4ccc(CCC(=O)OCCC(C)CCCC(C)C)cc4)cc3s2)cc1` (centres unmarked) [Compound (2)], for which the Solubility in cyclopentanone is on record as 4.5% by mass.

Compound `CCCOC(=O)c1ccc(/N=N/c2cc3sc(/N=N/c4ccc(N(CC)CC)cc4)nc3s2)cc1` [Compound (7), reference compound] yielded a Solubility in cyclopentanone of 0.19% by mass.

As for `CCCCOC(=O)CCC(=O)OCCc1ccc(/N=N/c2cc3sc(/N=N/c4ccc(N(CC)CC)cc4)nc3s2)cc1` [Compound (1)], the Solubility in cyclopentanone is recorded as 1.6% by mass.

Values taken from patent publication US20180265707A1, “DICHROIC DYE COMPOUND, DICHROIC DYE COMPOSITION, LIGHT-ABSORBING ANISOTROPIC FILM, POLARIZING ELEMENT, AND IMAGE DISPLAY DEVICE” (FUJIFILM Corporation, priority 2015, published 2018).
